Measurements as given in PubChem BioAssay (NCI).
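Assay format: 96-well plates, 48-hour exposure. At the GI50, growth is halved. At the TGI there is no net growth.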

Experiments:
Experiment in all cases: NCI anticancer screen, dose series, 48 h
COLO 205 colon = system: COLO 205 colon
NCI-H226 lung = system: NCI-H226 lung
T-47D breast = system: T-47D breast
TK-10 renal = system: TK-10 renal
MALME-3M melanoma = system: MALME-3M melanoma
MDA-MB-435 = system: MDA-MB-435
M14 melanoma = system: M14 melanoma
HCT-116 colon = system: HCT-116 colon
HCC-2998 colon = system: HCC-2998 colon
MCF7 breast = system: MCF7 breast

Row | SMILES | TGI (COLO 205 colon) [µM] | TGI (NCI-H226 lung) [µM] | TGI (T-47D breast) [µM] | TGI (TK-10 renal) [µM] | TGI (MALME-3M melanoma) [µM] | TGI (MDA-MB-435) [µM] | TGI (M14 melanoma) [µM] | GI50 (COLO 205 colon) [µM] | GI50 (NCI-H226 lung) [µM] | GI50 (T-47D breast) [µM] | GI50 (TK-10 renal) [µM] | GI50 (MDA-MB-435) [µM] | GI50 (HCT-116 colon) [µM] | TGI (HCT-116 colon) [µM] | GI50 (M14 melanoma) [µM] | GI50 (HCC-2998 colon) [µM] | TGI (HCC-2998 colon) [µM] | TGI (MCF7 breast) [µM] | GI50 (MCF7 breast) [µM] | GI50 (MALME-3M melanoma) [µM]
1 | Cc1cccc(N2C(=O)C3c4[nH]c5ccc(C)cc5c4C4CCC(C(C)(C)C)CC4C3C2=O)c1 (centres undefined) | > 100 | 36.5 | 52.1 | 59.8 | 71.2 | > 100 | > 100 | – | – | – | – | – | – | – | – | – | – | – | – | –
2 | CCCCCCCCCCCCCC[n+]1ccc(C)cc1 | 2.67 | 5.59 | 10.6 | 2.11 | – | 2.16 | 1.25 | 1.22 | 0.915 | 0.831 | 0.627 | 0.638 | 0.403 | 2.01 | 0.345 | 0.708 | 2.04 | – | – | –
3 | CCCCOP(C)(=O)C(NC(=O)OCC)(C(F)(F)F)C(F)(F)F (centres undefined) | > 100 | > 100 | > 100 | > 100 | > 100 | > 100 | > 100 | – | – | – | – | – | – | > 100 | – | – | > 100 | > 100 | – | –
4 | C=C1C(=O)OC2CC(C)C3C4OC4C(O)C3(C)C(O)C12 (centres undefined) | 51.6 | > 68 | – | – | 67.1 | – | – | – | – | – | – | – | – | 55.6 | – | – | 75.8 | 66.7 | – | –
5 | CSc1nc(N)c2c(-c3ccccc3)c3c(nc2n1)CCCC3 | > 100 | – | > 100 | > 100 | > 100 | > 100 | > 100 | – | – | – | – | – | – | > 100 | – | – | – | > 100 | – | –
6 | COc1ccc(-c2c(-c3ccccc3)c(C)nc3nc(SC)nc(SC)c23)cc1OC | 27.9 | 82.9 | > 100 | > 100 | 38.5 | > 100 | > 100 | – | – | – | – | – | – | 32.2 | – | – | > 100 | > 100 | – | –
7 | Clc1ccc(C[P+](c2ccccc2)(c2ccccc2)c2ccccc2)cc1Cl | 2.95 | 13.1 | – | 17.6 | 7.8 | – | 12.5 | – | – | – | – | – | – | 10.8 | – | – | 11.2 | – | – | –
8 | C/C(N=NS(=O)(=O)c1ccc([N+](=O)[O-])cc1)=C1\C=CC=CN1O | – | – | – | > 100 | – | – | > 100 | – | – | – | – | – | – | > 100 | – | – | > 100 | – | – | –
9 | O=C1/C(=C/c2ccc(O)cc2)COc2ccc(O)c(O)c21 | – | 34.8 | > 100 | > 100 | 4.58 | 4.91 | 20.1 | – | 8.37 | 3.31 | 3.12 | 2.03 | 1.76 | 3.41 | 3.43 | 3.61 | 13.1 | > 100 | 2.18 | 1.76
10 | C/C(=N\O)c1cccc[n+]1Cc1ccccc1 | > 100 | > 100 | > 100 | > 100 | > 100 | > 100 | > 100 | – | – | – | – | – | – | > 100 | – | – | > 100 | > 100 | – | –
11 | CC(C)c1ccccc1SCc1cc(=O)cc(CSc2ccccc2C(C)C)o1 | > 100 | 41.7 | > 100 | 38.7 | 44.4 | 32.8 | 49.5 | – | – | – | – | – | – | – | – | – | 84.5 | 57.5 | – | –
12 | CC12CCC(CC1)C(C)(C)O2 | 99.6 | 42.4 | – | – | 122 | – | – | – | 6.25 | – | – | – | 12.6 | 81.3 | – | – | 97.7 | 27.9 | – | –
13 | O=C(O)/C=C/c1c[nH]c(=O)[nH]c1=O | > 500 | > 500 | – | – | > 500 | – | – | – | – | – | – | – | – | > 500 | – | – | > 500 | > 500 | – | –
